Test results: the kinase profiling compilation of Christmann-Franck et al. (2016)

Tests used:
Experiment in all cases: KINOMEscan competition binding
Conditions in all cases: compound 10.0 µM
RPS6KA4 KD2 (human) = RPS6KA4 KD2 (human) (UniProt O75676)
CAMK2D (human) = CAMK2D (human) (UniProt Q13557)
PRKCH (human) = PRKCH (human) (UniProt P24723)
RIOK1 (human) = RIOK1 (human) (UniProt Q9BRS2)
STK35 (human) = STK35 (human) (UniProt Q8TDR2)
SRPK1 (human) = SRPK1 (human) (UniProt Q96SB4)
BRSK1 (human) = BRSK1 (human) (UniProt Q8TDC3)
FGR (human) = FGR (human) (UniProt P09769)
CSNK2A2 (human) = CSNK2A2 (human) (UniProt P19784)
AKT3 (human) = AKT3 (human) (UniProt Q9Y243)
MKNK1 (human) = MKNK1 (human) (UniProt Q9BUB5)
PAK1 (human) = PAK1 (human) (UniProt Q13153)
PRKD1 (human) = PRKD1 (human) (UniProt Q15139)
AURKC (human) = AURKC (human) (UniProt Q9UQB9)
SIK2 (human) = SIK2 (human) (UniProt Q9H0K1)
ERBB2 (human) = ERBB2 (human) (UniProt P04626)
MELK (human) = MELK (human) (UniProt Q14680)
TNIK (human) = TNIK (human) (UniProt Q9UKE5)
MAP4K4 (human) = MAP4K4 (human) (UniProt O95819)
AKT2 (human) = AKT2 (human) (UniProt P31751)
LIMK2 (human) = LIMK2 (human) (UniProt P53671)
CSNK1G2 (human) = CSNK1G2 (human) (UniProt P78368)
MST4 (human) = MST4 (human) (UniProt Q9P289)
LATS1 (human) = LATS1 (human) (UniProt O95835)
CAMK2A (human) = CAMK2A (human) (UniProt Q9UQM7)
NLK (human) = NLK (human) (UniProt Q9UBE8)
CLK1 (human) = CLK1 (human) (UniProt P49759)
CAMK2B (human) = CAMK2B (human) (UniProt Q13554)
PRKAA1 (human) = PRKAA1 (human) (UniProt Q13131)
CSNK2A1 (human) = CSNK2A1 (human) (UniProt P68400)
CDC2L2 (human) = CDC2L2 (human) (UniProt Q9UQ88)
NUAK2 (human) = NUAK2 (human) (UniProt Q9H093)
PRKCQ (human) = PRKCQ (human) (UniProt Q04759)
MYLK (human) = MYLK (human) (UniProt Q15746)
CDK8 (human) = CDK8 (human) (UniProt P49336)
CSNK1G3 (human) = CSNK1G3 (human) (UniProt Q9Y6M4)
CDK9 (human) = CDK9 (human) (UniProt P50750)
RIPK1 (human) = RIPK1 (human) (UniProt Q13546)
MAPK6 (human) = MAPK6 (human) (UniProt Q16659)
FLT4 (human) = FLT4 (human) (UniProt P35916)

Chain of RPS6KA4 KD2 (human) (O75676 whole entry, looked up): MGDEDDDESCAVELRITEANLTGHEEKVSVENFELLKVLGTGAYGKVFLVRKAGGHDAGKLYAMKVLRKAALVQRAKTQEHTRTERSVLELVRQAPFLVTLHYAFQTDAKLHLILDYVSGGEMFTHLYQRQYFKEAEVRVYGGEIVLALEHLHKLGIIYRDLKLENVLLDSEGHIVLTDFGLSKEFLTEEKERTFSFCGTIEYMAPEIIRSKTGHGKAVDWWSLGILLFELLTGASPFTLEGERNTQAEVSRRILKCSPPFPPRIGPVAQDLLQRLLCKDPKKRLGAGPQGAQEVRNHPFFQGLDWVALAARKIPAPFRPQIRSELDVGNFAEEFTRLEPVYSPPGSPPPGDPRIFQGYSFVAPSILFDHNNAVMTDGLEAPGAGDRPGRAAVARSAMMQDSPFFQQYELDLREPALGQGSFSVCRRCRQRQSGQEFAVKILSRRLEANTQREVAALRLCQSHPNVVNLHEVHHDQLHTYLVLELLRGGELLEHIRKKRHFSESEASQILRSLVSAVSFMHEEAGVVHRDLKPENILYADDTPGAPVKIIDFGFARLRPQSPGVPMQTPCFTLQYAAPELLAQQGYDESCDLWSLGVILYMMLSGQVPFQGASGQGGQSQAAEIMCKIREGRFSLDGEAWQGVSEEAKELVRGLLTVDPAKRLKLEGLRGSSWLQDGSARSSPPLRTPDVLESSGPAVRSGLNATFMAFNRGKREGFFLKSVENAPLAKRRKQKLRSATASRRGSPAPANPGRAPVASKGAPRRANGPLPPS
Chain of PRKD1 (human) (Q15139 whole entry, looked up): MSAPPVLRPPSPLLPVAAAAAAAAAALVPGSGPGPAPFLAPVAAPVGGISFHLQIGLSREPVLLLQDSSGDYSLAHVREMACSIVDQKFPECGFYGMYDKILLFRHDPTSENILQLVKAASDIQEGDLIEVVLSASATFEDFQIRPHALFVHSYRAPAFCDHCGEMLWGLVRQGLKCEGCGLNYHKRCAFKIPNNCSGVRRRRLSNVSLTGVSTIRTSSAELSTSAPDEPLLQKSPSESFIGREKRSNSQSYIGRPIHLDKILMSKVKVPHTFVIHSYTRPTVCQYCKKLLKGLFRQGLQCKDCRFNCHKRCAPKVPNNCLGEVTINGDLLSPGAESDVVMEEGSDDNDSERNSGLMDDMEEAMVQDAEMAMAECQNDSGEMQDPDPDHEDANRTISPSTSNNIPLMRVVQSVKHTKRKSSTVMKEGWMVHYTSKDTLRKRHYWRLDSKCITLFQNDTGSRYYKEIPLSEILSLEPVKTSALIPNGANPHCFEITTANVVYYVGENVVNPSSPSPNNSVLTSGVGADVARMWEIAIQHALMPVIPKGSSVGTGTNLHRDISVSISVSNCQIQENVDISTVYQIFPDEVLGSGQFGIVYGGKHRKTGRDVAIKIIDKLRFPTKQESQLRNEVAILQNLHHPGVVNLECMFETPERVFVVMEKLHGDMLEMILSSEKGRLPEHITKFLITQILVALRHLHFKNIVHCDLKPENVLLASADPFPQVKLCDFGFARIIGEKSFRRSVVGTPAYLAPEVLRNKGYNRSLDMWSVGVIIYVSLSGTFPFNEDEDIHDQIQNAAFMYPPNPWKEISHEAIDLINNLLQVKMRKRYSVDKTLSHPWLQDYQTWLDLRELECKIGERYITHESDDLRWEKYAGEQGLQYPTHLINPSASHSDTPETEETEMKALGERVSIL
Chain of AKT2 (human) (P31751 whole entry, looked up): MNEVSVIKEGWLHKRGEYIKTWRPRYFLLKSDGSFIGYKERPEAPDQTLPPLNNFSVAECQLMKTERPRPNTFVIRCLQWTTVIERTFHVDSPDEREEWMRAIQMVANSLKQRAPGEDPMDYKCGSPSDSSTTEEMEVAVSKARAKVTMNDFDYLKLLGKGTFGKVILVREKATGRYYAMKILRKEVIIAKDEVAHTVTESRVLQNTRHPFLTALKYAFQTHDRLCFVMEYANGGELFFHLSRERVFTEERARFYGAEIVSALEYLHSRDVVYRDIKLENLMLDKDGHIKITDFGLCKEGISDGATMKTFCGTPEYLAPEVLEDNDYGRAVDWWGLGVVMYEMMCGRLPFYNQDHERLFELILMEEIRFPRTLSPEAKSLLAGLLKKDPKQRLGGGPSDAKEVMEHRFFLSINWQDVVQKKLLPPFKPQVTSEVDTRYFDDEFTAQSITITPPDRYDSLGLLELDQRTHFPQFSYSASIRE
Chain of CAMK2D (human) (Q13557 whole entry, looked up): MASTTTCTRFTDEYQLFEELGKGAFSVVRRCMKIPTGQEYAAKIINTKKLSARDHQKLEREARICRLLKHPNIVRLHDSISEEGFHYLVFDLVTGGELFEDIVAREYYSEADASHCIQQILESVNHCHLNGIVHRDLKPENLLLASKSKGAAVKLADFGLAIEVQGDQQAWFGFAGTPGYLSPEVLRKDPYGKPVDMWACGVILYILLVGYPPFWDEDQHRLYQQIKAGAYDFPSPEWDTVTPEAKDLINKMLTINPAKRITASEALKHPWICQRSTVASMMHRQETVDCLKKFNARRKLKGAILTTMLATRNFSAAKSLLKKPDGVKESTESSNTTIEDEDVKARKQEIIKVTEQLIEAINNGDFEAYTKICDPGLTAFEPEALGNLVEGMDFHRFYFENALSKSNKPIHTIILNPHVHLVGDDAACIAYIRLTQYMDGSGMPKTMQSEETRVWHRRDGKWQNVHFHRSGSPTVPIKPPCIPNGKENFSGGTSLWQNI
Chain of BRSK1 (human) (Q8TDC3 whole entry, looked up): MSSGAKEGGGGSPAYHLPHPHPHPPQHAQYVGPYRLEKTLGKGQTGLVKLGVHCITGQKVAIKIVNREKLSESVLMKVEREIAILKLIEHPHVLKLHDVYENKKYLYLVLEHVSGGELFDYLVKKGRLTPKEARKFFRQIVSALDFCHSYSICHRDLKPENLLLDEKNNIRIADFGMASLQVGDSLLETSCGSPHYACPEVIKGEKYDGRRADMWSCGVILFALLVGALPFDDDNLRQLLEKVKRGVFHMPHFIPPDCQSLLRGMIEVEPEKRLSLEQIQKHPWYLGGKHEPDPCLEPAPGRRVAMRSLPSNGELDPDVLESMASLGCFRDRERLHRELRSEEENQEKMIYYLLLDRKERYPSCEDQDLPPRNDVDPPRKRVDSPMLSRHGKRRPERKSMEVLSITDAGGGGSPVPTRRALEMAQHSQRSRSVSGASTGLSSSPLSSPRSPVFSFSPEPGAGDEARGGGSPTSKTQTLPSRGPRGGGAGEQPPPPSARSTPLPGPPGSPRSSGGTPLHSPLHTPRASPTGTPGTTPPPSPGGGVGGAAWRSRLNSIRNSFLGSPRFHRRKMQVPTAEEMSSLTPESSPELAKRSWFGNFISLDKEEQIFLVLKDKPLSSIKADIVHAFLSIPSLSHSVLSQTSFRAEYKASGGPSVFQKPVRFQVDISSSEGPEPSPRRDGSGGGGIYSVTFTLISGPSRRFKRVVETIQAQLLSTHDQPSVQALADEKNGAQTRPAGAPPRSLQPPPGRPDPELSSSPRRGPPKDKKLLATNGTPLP
Chain of ERBB2 (human) (P04626 whole entry, looked up): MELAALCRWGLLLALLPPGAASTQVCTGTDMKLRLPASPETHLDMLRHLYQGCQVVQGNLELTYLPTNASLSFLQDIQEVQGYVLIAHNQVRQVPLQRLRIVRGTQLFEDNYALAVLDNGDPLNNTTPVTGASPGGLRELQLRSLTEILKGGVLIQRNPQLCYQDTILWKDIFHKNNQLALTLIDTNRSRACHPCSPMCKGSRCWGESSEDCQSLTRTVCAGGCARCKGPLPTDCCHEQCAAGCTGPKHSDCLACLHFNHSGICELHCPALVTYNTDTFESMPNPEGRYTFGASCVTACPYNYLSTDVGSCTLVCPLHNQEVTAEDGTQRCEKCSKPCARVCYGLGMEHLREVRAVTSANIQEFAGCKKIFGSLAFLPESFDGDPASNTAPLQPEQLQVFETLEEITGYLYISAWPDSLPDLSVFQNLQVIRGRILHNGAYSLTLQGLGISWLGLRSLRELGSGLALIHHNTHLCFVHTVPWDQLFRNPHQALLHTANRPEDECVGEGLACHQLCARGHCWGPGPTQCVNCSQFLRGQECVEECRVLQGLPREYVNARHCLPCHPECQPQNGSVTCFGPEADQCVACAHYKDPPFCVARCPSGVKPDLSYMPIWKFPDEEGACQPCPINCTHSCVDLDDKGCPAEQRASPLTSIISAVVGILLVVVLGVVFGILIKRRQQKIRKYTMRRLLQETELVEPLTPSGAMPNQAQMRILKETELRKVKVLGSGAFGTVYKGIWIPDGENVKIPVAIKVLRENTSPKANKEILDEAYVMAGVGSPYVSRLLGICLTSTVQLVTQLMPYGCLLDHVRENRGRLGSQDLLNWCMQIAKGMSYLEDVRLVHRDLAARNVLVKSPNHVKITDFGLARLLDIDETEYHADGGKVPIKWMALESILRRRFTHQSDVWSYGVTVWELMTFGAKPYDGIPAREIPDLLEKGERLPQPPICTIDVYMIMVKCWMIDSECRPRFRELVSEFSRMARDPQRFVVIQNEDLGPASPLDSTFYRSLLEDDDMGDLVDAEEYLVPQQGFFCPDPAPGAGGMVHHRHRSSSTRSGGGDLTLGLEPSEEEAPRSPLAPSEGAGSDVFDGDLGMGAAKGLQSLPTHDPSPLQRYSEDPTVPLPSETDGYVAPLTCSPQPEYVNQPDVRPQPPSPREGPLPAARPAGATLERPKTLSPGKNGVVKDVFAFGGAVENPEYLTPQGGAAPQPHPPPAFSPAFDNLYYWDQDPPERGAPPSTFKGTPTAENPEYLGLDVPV
Chain of AURKC (human) (Q9UQB9 whole entry, looked up): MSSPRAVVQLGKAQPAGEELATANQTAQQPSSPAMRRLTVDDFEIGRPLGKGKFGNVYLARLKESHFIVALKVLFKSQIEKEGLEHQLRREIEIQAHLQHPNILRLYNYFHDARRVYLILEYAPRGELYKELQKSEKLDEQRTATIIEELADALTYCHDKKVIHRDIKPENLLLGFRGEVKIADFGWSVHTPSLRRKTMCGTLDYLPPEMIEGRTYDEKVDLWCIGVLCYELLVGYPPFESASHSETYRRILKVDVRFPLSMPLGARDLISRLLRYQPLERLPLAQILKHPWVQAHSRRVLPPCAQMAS

SMILES	kinase still bound, per cent of control (RPS6KA4 KD2 (human)) [%]	kinase still bound, per cent of control (CAMK2D (human)) [%]	kinase still bound, per cent of control (PRKCH (human)) [%]	kinase still bound, per cent of control (RIOK1 (human)) [%]	kinase still bound, per cent of control (STK35 (human)) [%]	kinase still bound, per cent of control (SRPK1 (human)) [%]	kinase still bound, per cent of control (BRSK1 (human)) [%]	kinase still bound, per cent of control (FGR (human)) [%]	kinase still bound, per cent of control (CSNK2A2 (human)) [%]	kinase still bound, per cent of control (AKT3 (human)) [%]	kinase still bound, per cent of control (MKNK1 (human)) [%]	kinase still bound, per cent of control (PAK1 (human)) [%]	kinase still bound, per cent of control (PRKD1 (human)) [%]	kinase still bound, per cent of control (AURKC (human)) [%]	kinase still bound, per cent of control (SIK2 (human)) [%]	kinase still bound, per cent of control (ERBB2 (human)) [%]	kinase still bound, per cent of control (MELK (human)) [%]	kinase still bound, per cent of control (TNIK (human)) [%]	kinase still bound, per cent of control (MAP4K4 (human)) [%]	kinase still bound, per cent of control (AKT2 (human)) [%]	other results
C[C@@H](Oc1cc(-n2cnc3ccc(CN4CCN(C)CC4)cc32)sc1C(N)=O)c1ccccc1C(F)(F)F	0.55	7.3	90	4.4	76	46	42	82	4.6	100	100	100	20	100	61	68	49	78	64	100	kinase still bound, per cent of control (LIMK2 (human)): 100%; kinase still bound, per cent of control (CSNK1G2 (human)): 97%; kinase still bound, per cent of control (MST4 (human)): 95%; kinase still bound, per cent of control (LATS1 (human)): 100%; kinase still bound, per cent of control (CAMK2A (human)): 4.9%; kinase still bound, per cent of control (NLK (human)): 100%; kinase still bound, per cent of control (CLK1 (human)): 36%; kinase still bound, per cent of control (CAMK2B (human)): 19%; kinase still bound, per cent of control (PRKAA1 (human)): 57%; kinase still bound, per cent of control (CSNK2A1 (human)): 13%; kinase still bound, per cent of control (CDC2L2 (human)): 100%; kinase still bound, per cent of control (NUAK2 (human)): 1.2%; kinase still bound, per cent of control (PRKCQ (human)): 47%; kinase still bound, per cent of control (MYLK (human)): 62%; kinase still bound, per cent of control (CDK8 (human)): 95%; kinase still bound, per cent of control (CSNK1G3 (human)): 100%; kinase still bound, per cent of control (CDK9 (human)): 93%; kinase still bound, per cent of control (RIPK1 (human)): 100%; kinase still bound, per cent of control (MAPK6 (human)): 100%; kinase still bound, per cent of control (FLT4 (human)): 63%
OCCCNc1cc(-c2ccnc(Nc3cccc(Cl)c3)n2)ccn1	100	100	100	100	100	100	100	100	100	100	100	100	100	100	100	100	100	100	100	100	kinase still bound, per cent of control (LIMK2 (human)): 100%; kinase still bound, per cent of control (CSNK1G2 (human)): 100%; kinase still bound, per cent of control (MST4 (human)): 100%; kinase still bound, per cent of control (LATS1 (human)): 100%; kinase still bound, per cent of control (CAMK2A (human)): 100%; kinase still bound, per cent of control (NLK (human)): 100%; kinase still bound, per cent of control (CLK1 (human)): 2.2%; kinase still bound, per cent of control (CAMK2B (human)): 100%; kinase still bound, per cent of control (PRKAA1 (human)): 100%; kinase still bound, per cent of control (CSNK2A1 (human)): 100%; kinase still bound, per cent of control (CDC2L2 (human)): 100%; kinase still bound, per cent of control (NUAK2 (human)): 100%; kinase still bound, per cent of control (PRKCQ (human)): 100%; kinase still bound, per cent of control (MYLK (human)): 100%; kinase still bound, per cent of control (CDK8 (human)): 100%; kinase still bound, per cent of control (CSNK1G3 (human)): 100%; kinase still bound, per cent of control (CDK9 (human)): 10%; kinase still bound, per cent of control (RIPK1 (human)): 100%; kinase still bound, per cent of control (MAPK6 (human)): 100%; kinase still bound, per cent of control (FLT4 (human)): 100%
